Measurements taken from patent US20250304549A1, “HYDROXYAMIDE DERIVATIVE AND USE THEREOF” (SICHUAN HUIYU PHARMACEUTICAL CO., LTD., priority 2022, published 2025).
Structures can show the parent of a compound that is named as a salt.

Tests used:
LSD1 = LSD1 (Homo sapiens (Human), UniProt O60341); assay: In vitro enzyme inhibition assay - LSD1 (HTRF); type: biochemical
pan-HDAC = assay: In vitro enzyme inhibition assay - HDAC (HDAC-Glo I/II), pan-HDAC; type: biochemical
Method in brief: (§1)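 Inhibition was measured with the HDAC-Glo I/II luminescent assay, testing compound as an 8-point, 5-fold dilution series from a 1 mM DMSO stock. Luminescence (RLU) was normalized to no-inhibitor and no-enzyme controls, and IC50 was derived by four-parameter variable-slope fitting.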

HDAC1 = HDAC1 (Homo sapiens (Human), UniProt Q13547); assay: In vitro enzyme inhibition assay - HDAC (HDAC-Glo I/II), HDAC1; type: biochemical; details: read-out: HDAC IC50 (nM) HDAC 1
HDAC1, sequence (Q13547 whole entry): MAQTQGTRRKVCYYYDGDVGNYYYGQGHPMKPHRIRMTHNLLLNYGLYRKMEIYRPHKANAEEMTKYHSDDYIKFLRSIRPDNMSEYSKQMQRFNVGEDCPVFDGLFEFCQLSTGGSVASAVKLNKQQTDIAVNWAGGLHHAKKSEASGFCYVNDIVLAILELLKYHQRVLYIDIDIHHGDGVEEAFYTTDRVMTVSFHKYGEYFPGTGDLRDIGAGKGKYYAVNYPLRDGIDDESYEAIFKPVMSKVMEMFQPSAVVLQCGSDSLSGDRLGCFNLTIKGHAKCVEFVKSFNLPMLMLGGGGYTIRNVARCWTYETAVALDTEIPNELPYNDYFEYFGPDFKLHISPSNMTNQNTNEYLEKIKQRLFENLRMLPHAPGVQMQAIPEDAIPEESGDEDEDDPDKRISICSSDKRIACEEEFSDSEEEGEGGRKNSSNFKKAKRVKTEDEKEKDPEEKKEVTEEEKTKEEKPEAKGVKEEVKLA
Method in brief: as §1

HDAC8 = HDAC8 (Homo sapiens (Human), UniProt Q9BY41); assay: In vitro enzyme inhibition assay - HDAC (HDAC-Glo I/II), HDAC8; type: biochemical; details: read-out: HDAC IC50 (nM) HDAC 8
HDAC8, sequence (Q9BY41 whole entry): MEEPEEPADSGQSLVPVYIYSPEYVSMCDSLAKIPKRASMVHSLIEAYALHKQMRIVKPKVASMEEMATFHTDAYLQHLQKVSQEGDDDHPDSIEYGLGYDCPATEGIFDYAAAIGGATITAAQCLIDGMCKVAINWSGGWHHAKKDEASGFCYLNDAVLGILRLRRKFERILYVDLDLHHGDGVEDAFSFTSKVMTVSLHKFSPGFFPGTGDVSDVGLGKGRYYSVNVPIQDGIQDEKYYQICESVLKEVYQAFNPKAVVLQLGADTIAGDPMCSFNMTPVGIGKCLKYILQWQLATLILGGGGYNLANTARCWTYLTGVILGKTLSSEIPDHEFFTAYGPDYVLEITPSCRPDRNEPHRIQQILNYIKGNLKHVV
Method in brief: as §1

NCI-H1417 cells = assay: In vitro cell inhibition assay - H1417 cell proliferation (CellTiter-Glo); type: cell-based; details: Homo sapiens, NCI-H1417, H1417 small cell lung cancer cell proliferation
Method in brief: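 Cells exposed to 8 compound concentrations (5-fold dilutions) in BEGM with 10% FBS for 7 days at 37° C., 5% CO2. Viable cells measured by CellTiter-Glo luminescence; inhibition versus no-inhibitor and no-cell controls, IC50 fitted.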

NCI-H69 cells = assay: In vitro cell inhibition assay - NCI-H69 cell proliferation (CellTiter-Glo); type: cell-based; details: Homo sapiens, NCI-H69, H69 small cell lung cancer cell proliferation
Method in brief: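 Luminescence from CellTiter-Glo reagent served as the viability read-out after cells were exposed to compounds for 7 days at 37° C. Eight concentrations in a 5-fold series were tested in medium with 20% FBS. Inhibition was normalised to untreated and cell-free wells before IC50 fitting.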

DU145 cells = assay: In vitro cell inhibition assay - DU145 cell proliferation (CellTiter-Glo); type: cell-based; details: Homo sapiens, DU-145, Du145 prostate cancer cell proliferation
Method in brief: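 Viability read-out was CellTiter-Glo luminescence after a 6-day, 37° C exposure of DU145 cells (1×10^3/well, 10% FBS RPMI-640) to 8 compound concentrations in 5-fold steps.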

NCI-H526 cells = assay: In vitro cell inhibition assay - NCI-H526 cell proliferation (CellTiter-Glo); type: cell-based; details: Homo sapiens, NCI-H526, 120 h, H526 small cell lung cancer cell proliferation, 5 days
Method in brief: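 NCI-H526 cells plated at 1×10^3 per well overnight, then treated with 8 concentrations (5-fold dilutions) in RPMI-640 with 10% FBS for 5 days at 37° C., 5% CO2. Viable cells quantified by CellTiter-Glo luminescence; IC50 fitted from inhibition rates relative to no-inhibitor and no-cell controls.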

Row | SMILES | IC50 (LSD1) | IC50 (pan-HDAC) | IC50 (HDAC1) | IC50 (HDAC8) | IC50 (NCI-H1417 cells) | IC50 (NCI-H69 cells) | IC50 (DU145 cells) | IC50 (NCI-H526 cells)
1 | COc1ccc(-c2cnc(N3CCC(NCc4cnc(/C=C/C(=O)NO)nc4)CC3)c(C#N)c2-c2ccc(C#N)c(F)c2)cc1O [Example 106, (E)-3-(5-(((1-(3-Cyano-4-(4-cyano-3-fluorophenyl)-5-(3-hydroxy-4-methoxyphenyl)pyridin-2-yl)piperidin-4-yl)amino)methyl)pyrimidin-2-yl)-N-hydroxyacrylamide formate] | 2.62 nM | 4.85 nM | 3.81 nM | 13.1 nM | 3.29 nM | 3.48 nM | 13.6 nM | 7.09 nM
2 | COc1ccc(-c2cnc(N3CCC(NCc4ccc(/C=C/C(=O)NO)c(OC)c4)CC3)c(C#N)c2-c2ccc(C#N)c(F)c2)cc1O [Example 108, (E)-3-(4-(((1-(3-Cyano-4-(4-cyano-3-fluorophenyl)-5-(3-hydroxy-4-methoxyphenyl)pyridin-2-yl)piperidin-4-yl)amino)methyl)-2-methoxyphenyl)-N-hydroxyacrylamide formate] | 2.3 nM | 26.6 nM | 25.8 nM | 93.1 nM | 4.4 nM | 16 nM | 28.6 nM | 13.8 nM
3 | COc1ccc(-c2cnc(N3CCC(NCc4cnc(/C=C/C(=O)NO)s4)CC3)c(C#N)c2-c2ccc(C#N)c(F)c2)cc1O [Example 112, (E)-3-(5-((1-(3-Cyano-4-(4-cyano-3-fluorophenyl)-5-(3-hydroxy-4-methoxyphenyl)pyridin-2-yl)piperidin-4-yl)amino)methyl) thiazol-2-yl)-N-hydroxyacrylamide formate] | 2.66 nM | 26.9 nM | 26.3 nM | 81.4 nM | 4.14 nM | 32.7 nM | 86.8 nM | 63.5 nM
4 | N#Cc1ccc(-c2cnc(N3CCC(NCc4ccc(/C=C/C(=O)NO)cc4)CC3)c(C#N)c2-c2ccc(C#N)c(F)c2)cc1O [Example 113, (E)-3-(4-(((1-(3-Cyano-4-(4-cyano-3-fluorophenyl)-5-(4-cyano-3-hydroxyphenyl)pyridin-2-yl)piperidin-4-yl)amino)methyl)phenyl)-N-hydroxyacrylamide formate] | 2 nM | 25 nM | 17.3 nM | 72.7 nM | 29.8 nM | 76.3 nM | 130 nM | 80 nM
5 | COc1cc(F)c(-c2cnc(N3CCC(NCc4ccc(/C=C/C(=O)NO)cc4)CC3)c(C#N)c2-c2ccc(C#N)c(F)c2)cc1O [Example 130, (E)-3-(4-((1-(3-Cyano-4-(4-cyano-3-fluorophenyl)-5-(2-fluoro-5-hydroxy-4-methoxyphenyl)pyridin-2-yl)piperidin-4-yl)amino)methyl) phenyl)-N-hydroxyacrylamide formate] | 1.89 nM | 6.13 nM | 0.77 nM | 220 nM | 1.09 nM | 25.2 nM | 25 nM | 22.8 nM
6 | COc1ccc(-c2cnc(N3CCC(NCc4cnc(/C=C/C(=O)NO)cn4)CC3)c(C#N)c2-c2ccc(C#N)c(F)c2)cc1O [Example 133, (E)-3-(5-(((1-(3-Cyano-4-(4-cyano-3-fluorophenyl)-5-(3-hydroxy-4-methoxyphenyl)pyridin-2-yl)piperidin-4-yl)amino)methyl)pyrazin-2-yl)-N-hydroxyacrylamide trifluoroacetate] | 22 nM | 11.8 nM | 1.45 nM | 140 nM | 5.42 nM | 25.5 nM | 128 nM | 45.8 nM

These reach a lower IC50 (LSD1). Values come first.

Row | IC50 (LSD1) | IC50 (pan-HDAC) | IC50 (HDAC1) | IC50 (HDAC8) | IC50 (NCI-H1417 cells) | IC50 (NCI-H69 cells) | IC50 (DU145 cells) | IC50 (NCI-H526 cells) | SMILES
7 | 1.05 nM | 57.3 nM | 156 nM | 137 nM | 2.7 nM | 82.7 nM | 187 nM | 127 nM | Cc1noc2cc(-c3cnc(N4CCC(NCc5ccc(/C=C/C(=O)NO)cc5)CC4)c(C#N)c3-c3ccc(C#N)c(F)c3)c(F)cc12 [Example 110, (E)-3-(4-((1-(3-Cyano-4-(4-cyano-3-fluorophenyl)-5-(5-fluoro-3-methylbenzo[d]isoxazol-6-yl)pyridin-2-yl)piperidin-4-yl)amino)methyl) phenyl)-N-hydroxyacrylamide formate]
8 | 1.56 nM | 65.3 nM | 83.1 nM | 358 nM | 1.98 nM | 3.41 nM | 14.2 nM | 16.2 nM | N#Cc1ccc(-c2c(-c3ccc(C4CC4)c(O)c3)cnc(N3CCC(NCc4ccc(/C=C/C(=O)NO)cc4)CC3)c2C#N)cc1F [Example 111, (E)-3-(4-((1-(3-Cyano-4-(4-cyano-3-fluorophenyl)-5-(4-cyclopropyl-3-hydroxyphenyl)pyridin-2-yl)piperidin-4-yl)amino)methyl) phenyl)-N-hydroxyacrylamide formate]
9 | 0.97 nM | 175 nM | 178 nM | 571 nM | 9.4 nM | 78.2 nM | 391 nM | 155 nM | COc1ccc(-c2cnc(N3CCC(NCc4cccc(/C=C/C(=O)NO)c4)CC3)c(C#N)c2-c2ccc(C#N)c(F)c2)cc1O [Example 114, (E)-3-(3-(3-Cyano-4-(4-cyano-3-fluorophenyl)-5-(3-hydroxy-4-methoxyphenyl)pyridin-2-yl)piperidin-4-yl)amino)methyl) phenyl)-N-hydroxyacrylamide formate]
10 | 1.82 nM | 12.7 nM | 5.59 nM | 212 nM | 4.89 nM | 33.8 nM | 82 nM | 33.8 nM | N#Cc1ccc(-c2c(-c3ccc(OC(F)(F)F)c(O)c3)cnc(N3CCC(NCc4ccc(/C=C/C(=O)NO)cc4)CC3)c2C#N)cc1F [Example 116, (E)-3-(4-(1-(3-Cyano-4-(4-cyano-3-fluorophenyl)-5-(3-hydroxy-4-(trifluoromethoxy)phenyl)pyridin-2-yl)piperidin-4-yl)amino)methyl) phenyl)-N-hydroxyacrylamide formate]
11 | 0.58 nM | 0.75 nM | 0.44 nM | 30.3 nM | 2.8 nM | 3.24 nM | 11.8 nM | 8.09 nM | COc1ccc(-c2cnc(N3CCC(NCc4ccc(/C=C/C(=O)NO)cc4)CC3)c(C#N)c2-c2ccc(C#N)cc2)cc1O [Example 118, (E)-3-(4-((1-(3-Cyano-4-(4-cyanophenyl)-5-(3-hydroxy-4-methoxyphenyl)pyridin-2-yl)piperidin-4-yl)amino)methyl) phenyl)-N-hydroxyacrylamide formate]
12 | 1.63 nM | 7.69 nM | 3.95 nM | 179 nM | 3.34 nM | 18.3 nM | 30.5 nM | 20.6 nM | N#Cc1ccc(-c2c(-c3ccc(OC(F)F)c(O)c3)cnc(N3CCC(NCc4ccc(/C=C/C(=O)NO)cc4)CC3)c2C#N)cc1F [Example 124, (E)-3-(4-(((1-(3-Cyano-4-(4-cyano-3-fluorophenyl)-5-(4-(difluoromethoxy)-3-hydroxyphenyl)pyridin-2-yl))piperidin-4-yl)amino)methyl) phenyl)-N-hydroxyacrylamide formate]
13 | 1.2 nM | 12.4 nM | 5.82 nM | 423 nM | 2.65 nM | 8.85 nM | 15.5 nM | 15.4 nM | N#Cc1ccc(-c2c(-c3ccc(Br)c(O)c3)cnc(N3CCC(NCc4ccc(/C=C/C(=O)NO)cc4)CC3)c2C#N)cc1F [Example 127, (E)-3-(4-(((1-(5-(4-Bromo-3-hydroxyphenyl)-3-cyano-4-(4-cyano-3-fluorophenyl)pyridin-2-yl)piperidin-4-yl)amino)methyl)phenyl)-N-hydroxyacrylamide formate]
14 | 1.31 nM | 1.57 nM | 0.22 nM | 46.6 nM | 0.62 nM | 2.59 nM | 7.09 nM | 3.54 nM | N#Cc1ccc(-c2c(-c3ccc(CO)c(O)c3)cnc(N3CCC(NCc4ccc(/C=C/C(=O)NO)cc4)CC3)c2C#N)cc1F [Example 131, (E)-3-(4-(((1-(3-Cyano-4-(4-cyano-3-fluorophenyl)-5-(3-hydroxy-4-(hydroxymethyl)phenyl)pyridin-2-yl)piperidin-4-yl)amino)methyl)phenyl)-N-hydroxyacrylamide formate]
